Experimental data taken from PMC10770036, “Novel dual inhibitors of PARP and HDAC induce intratumoral STING-mediated antitumor immunity in triple-negative breast cancer” (Cell Death & Disease, 2024).

Assays:
[1] = target: T1, recombinant HDAC6 (Homo sapiens, UniProt Q9UBN7); assay: HDAC6 inhibition assay (Ac-peptide-AMC fluorescence); format: biochemical
T1 construct: purchased BPS Bioscience
T1 sequence (Q9UBN7 1-1215): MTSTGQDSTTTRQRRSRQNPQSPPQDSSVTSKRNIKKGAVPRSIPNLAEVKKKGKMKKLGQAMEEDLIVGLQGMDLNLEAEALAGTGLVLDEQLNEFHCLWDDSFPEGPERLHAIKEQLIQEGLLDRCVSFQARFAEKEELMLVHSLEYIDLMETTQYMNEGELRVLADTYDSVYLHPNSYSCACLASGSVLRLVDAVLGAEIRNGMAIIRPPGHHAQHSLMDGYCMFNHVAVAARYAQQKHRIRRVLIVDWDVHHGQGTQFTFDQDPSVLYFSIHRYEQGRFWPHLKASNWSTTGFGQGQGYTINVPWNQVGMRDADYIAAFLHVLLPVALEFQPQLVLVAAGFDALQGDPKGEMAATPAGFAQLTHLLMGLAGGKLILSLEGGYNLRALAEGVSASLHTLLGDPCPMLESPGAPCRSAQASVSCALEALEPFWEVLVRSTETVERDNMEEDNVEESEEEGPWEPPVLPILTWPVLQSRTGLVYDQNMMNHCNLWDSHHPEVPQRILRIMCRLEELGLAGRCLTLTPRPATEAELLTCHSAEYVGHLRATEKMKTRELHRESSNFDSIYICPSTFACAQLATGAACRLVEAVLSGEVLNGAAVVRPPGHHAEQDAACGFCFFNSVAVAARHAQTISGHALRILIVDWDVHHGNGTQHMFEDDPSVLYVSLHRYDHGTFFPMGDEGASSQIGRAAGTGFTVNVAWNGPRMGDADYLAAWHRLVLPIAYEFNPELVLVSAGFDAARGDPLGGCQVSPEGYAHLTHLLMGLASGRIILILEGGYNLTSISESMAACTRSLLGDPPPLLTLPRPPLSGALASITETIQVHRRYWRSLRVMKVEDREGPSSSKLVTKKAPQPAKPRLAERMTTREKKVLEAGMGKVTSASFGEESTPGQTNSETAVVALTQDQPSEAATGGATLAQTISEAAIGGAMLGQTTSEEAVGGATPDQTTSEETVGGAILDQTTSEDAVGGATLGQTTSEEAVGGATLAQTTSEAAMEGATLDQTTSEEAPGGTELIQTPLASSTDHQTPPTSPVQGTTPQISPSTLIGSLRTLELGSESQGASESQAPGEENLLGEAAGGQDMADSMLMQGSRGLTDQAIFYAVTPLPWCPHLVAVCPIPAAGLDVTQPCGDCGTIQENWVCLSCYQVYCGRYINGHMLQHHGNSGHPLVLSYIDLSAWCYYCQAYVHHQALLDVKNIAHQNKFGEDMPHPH
Protocol: The in vitro HDAC inhibition assays were carried out by Sundia MediTech Co. Ltd. in Shanghai, China. […] Reactions were stopped with trypsin, and the samples were incubated for another 90 min at 37 °C. […] IC50 values were obtained using GraphPad Prism software.

[2] = test system: TNBC cells; assay: Transwell migration assay; format: cell-based, human; conditions: 48 h, compared with the vehicle
Protocol: Cell migration and invasion assays were performed using Transwell chambers with 8 μm pores without Matrigel (for migration assay) or with Matrigel (for invasion assay).
Cell migration and invasion assays were performed using Transwell chambers with 8 μm pores (Corning) without Matrigel (for migration assay) or with Matrigel (for invasion assay). MDA-MB-436 and MDA-MB-231 cells were resuspended in serum-free Leibovitz’s L-15 medium and seeded in the upper chamber at a density of 12,000 cells/100 μL. The chambers were incubated in 24-well plates containing Leibovitz’s L-15 medium with 10% FBS and PARP/HDACi or DMSO. After 48 h, the cells were fixed with 4% paraformaldehyde and stained with crystal violet. The cells on the upper surface of the filters were removed by swabbing with a cotton swab, and the images were captured at 5× magnification under an inverted phase contrast microscope (Leica Microsystems).

[3] = test system: MCF-7 cells; assay: MTT cell viability assay, MCF-7; conditions: Homo sapiens, MCF7, 72 h, read-out: IC50 MCF-7
Protocol: (§1) The viability assay was measured by a 3-(4,5-dimethylthiazol-2-yl)−2,5-diphenyltetrazolium bromide (MTT) assay.
(§2) In brief, cells were seeded at a density of 6,000 cells in 96-well plates and cultured overnight. […] After aspiration of the medium, the formazan crystals were dissolved in 100 μL of DMSO. The absorbance at 490 nm was measured using a microplate reader (BioTek). All these analyses were performed at least three times.

[4] = test system: MDA-MB-436 cells; assay: MTT cell viability assay, MDA-MB-436; conditions: Homo sapiens, MDA-MB-436, 72 h, read-out: IC50 MDA-MB-436
Protocol: as §1, §2

[5] = test system: MDA-MB-231 cells; assay: MTT cell viability assay, MDA-MB-231; conditions: Homo sapiens, MDA-MB-231, 72 h, read-out: IC50 MDA-MB-231
Protocol: as §1, §2

[6] = test system: MDA-MB-468 cells; assay: MTT cell viability assay, MDA-MB-468; conditions: Homo sapiens, MDA-MB-468, 72 h, read-out: IC50 MDA-MB-468
Protocol: as §1, §2

Nc1cc(F)ccc1NC(=O)/C=C/c1ccc(CN2CCN(C(=O)c3cc(Cc4n[nH]c(=O)c5ccccc45)ccc3F)CC2)cc1 [Compound B102]
IC50 [1]: > 10 µM | migration of TNBC cells [2]: considerably inhibited the migration | IC50 [3]: 13.4 ± 3.2 µM | IC50 [4]: 160 ± 50 nM | IC50 [5]: 160 ± 20 nM | IC50 [6]: 270 ± 110 nM

Nc1cc(F)ccc1NC(=O)CCc1ccc(CN2CCN(C(=O)c3cc(Cc4n[nH]c(=O)c5ccccc45)ccc3F)CC2)cc1 [Compound B302]
IC50 [1]: > 10 µM | migration of TNBC cells [2]: considerably inhibited the migration | IC50 [3]: 4.93 ± 1.09 µM | IC50 [4]: 4120 ± 1020 nM | IC50 [5]: 2830 ± 400 nM | IC50 [6]: 1270 ± 580 nM
